From patent publication US7923465B2, “Cannabinoid receptor ligands, pharmaceutical compositions containing them, and process for their preparation” (priority 2005, dated 2011)

System: not given
Assay: not given
Conditions: not given

Structure (SMILES)	melting point
O=C(NCc1c(F)cccc1F)c1nn(-c2ccc(Cl)cc2Cl)c2c1C1CCC2C1 (stereo not drawn) [Example 248, N(3)-(2,6-Difluorobenzyl)-1-(2,4-dichlorophenyl)-4,5,6,7-tetrahydro-1H-4,7-methano-indazole-3-carboxamide]	130 to 133 °C
CN(NC(=O)c1nn(-c2ccc(Cl)cc2Cl)c2c1C1CCC2C1)c1ccccc1Cl (stereo not drawn) [Example 258, N(3)-[N-(2-Chlorophenyl)-N-methylamino]-1-(2,4-dichlorophenyl)-4,5,6,7-tetrahydro-1H-4,7-methano-indazole-3-carboxamide]	121 to 124 °C
O=C(NNc1ccccc1F)c1nn(-c2ccc(Br)cc2)c2c1C1CCC2C1 (stereo not drawn) [Example 278, N(3)-[(2-Fluorophenyl)amino]-1-(4-bromophenyl)-4,5,6,7-tetrahydro-1H-4,7-methano-indazole-3-carboxamide]	123 °C
CN(NC(=O)c1nn(-c2ccc(Cl)cc2Cl)c2c1C1CCC2C1)c1ccc(Cl)cc1Cl (stereo not drawn) [Example 261, N(3)-[(2,4dichlorophenyl)-N-methylamino]-1-(2,4-dichlorophenyl)-4,5,6,7-tetrahydro-1H-4,7-methano-indazole-3-carboxamide]	135 to 138 °C
O=C(NCC1CCCCC1)c1nn(-c2ccc(F)cc2F)c2c1C1CCC2C1 (stereo not drawn) [Example 291, N(3)-(Cyclohexylmethyl)-1-(2,4-difluorophenyl)-4,5,6,7-tetrahydro-1H-4,7-methano-indazole-3-carboxamide]	94 to 97 °C

Target: hCB2 (Homo sapiens, UniProt P34972)
Assay: In vitro binding assay using hCB2-CHO membranes, [3H]-CP-55,940 displacement (Protocol IV)
Parameters: expressed in transfected cells; host or cells: CHO (hCB2-CHO, generated in-house)
Conditions: 1 h, read-out: % Displacement Protocol IV
Method: IV. Protocol for In Vitro Assay Using hCB2-CHO Membranes:
In this assay, [^3H]-CP-55,940 was used as the radioligand to bind human CB2 receptor expressed on the membranes from CHO cells (hCB2-CHO cell line was generated in-house) which can be displaced by unlabeled ligands having affinity to the CB2 receptor.
The assay was performed according to the modified method of Ross et al., 1999 (Br. J. Pharmacol. 128, 735-743). The reaction was set up in a total volume of 200 μl in PEI (0.2%) precoated Millipore GFB filter plates. 1 mM stocks of test compounds were prepared in DMSO and tested at a final concentration of 300 nM. The non-specific binding was determined by 0.5 μM CP-55, 940. The total reaction mixture contained Tris-BSA buffer (50 mM Tris, 5 mM MgCl2, 1 mM EDTA, pH 7.4 with 0.1% BSA), unlabelled CP-55, 940 (0.5 μM) or test samples, [^3H]-CP-55, 940 (0.75 nM) and 25-50 μg of human CB2 receptor preparation. The assay mixture (with or without the test compound) was incubated at 30° C. for 1 hour. The reaction was stopped by rapid filtration under vacuum and the radioactivity on the filters was measured by liquid scintillation counting.
The percent (%) displacement by a test ligand was calculated by comparing the specific bound values.

Chain of hCB2 (P34972 whole entry): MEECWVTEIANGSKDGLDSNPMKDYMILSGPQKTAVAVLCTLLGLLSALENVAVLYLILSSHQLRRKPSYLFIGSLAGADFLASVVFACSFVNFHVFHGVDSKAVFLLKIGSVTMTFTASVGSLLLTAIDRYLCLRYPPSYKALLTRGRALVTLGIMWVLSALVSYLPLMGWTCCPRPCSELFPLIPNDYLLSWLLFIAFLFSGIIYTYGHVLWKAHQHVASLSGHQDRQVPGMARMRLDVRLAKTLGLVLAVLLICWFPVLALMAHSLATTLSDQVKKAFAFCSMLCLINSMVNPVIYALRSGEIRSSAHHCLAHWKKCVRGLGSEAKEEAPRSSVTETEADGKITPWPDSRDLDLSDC

Structure (SMILES)	inhibition at 0.3 µM
CCCCCn1nc2c(c1C(=O)NC(C)(C)c1ccccc1)C1CC3CC(CC2C3)C1 [Example 190a, N(7)-(1-Methyl-1-phenylethyl)-6-pentyl-5,6-diazatetracyclo[7.3.1.1^3,11.0^4,8]tetradeca-4,7-diene-7-carboxamide]	0%
CC(C)(C)NC(=O)c1nn(-c2ccc(Br)cc2)c2c1C1CCC2C1 (stereo not drawn) [Example 324, N(3)-(tert-Butyl)-1-(4-bromophenyl)-4,5,6,7-tetrahydro-1H-4,7-methano-indazole-3-carboxamide]	88.5%
O=C(NC12CC3CC(CC(C3)C1)C2)c1nn(-c2ccc(F)cc2F)c2c1C1CCC2C1 (stereo not drawn) [Example 334, N(3)-(Adamantan-1yl)-1-(2,4-difluorophenyl)-4,5,6,7-tetrahydro-1H-4,7-methano-indazole-3-carboxamide]	100%
CC(C)(C)NC(=O)c1nn(Cc2ccc(F)cc2)c2c1C1CCC2C1 (stereo not drawn) [Example 335a, N(3)-(tert-butyl)-1-(4-fluorobenzyl)-4,5,6,7-tetrahydro-1H-4,7-methano-indazole-3-carboxamide]	96.5%

Same assay, conditions: 1 h; hCB2-CHO membranes, [3H]-CP-55,940 displacement; read-out: % Displacement Protocol IV

Structure (SMILES)	inhibition at 0.3 µM
CCOc1cc(F)ccc1-n1nc(C(=O)NC(C)(C)C)c2c1C1CCC2C1 (stereo not drawn) [Example 329, N(3)-(tert-Butyl)-1-(2-ethoxy,4-fluorophenyl)-4,5,6,7-tetrahydro-1H-4,7-methano-indazole-3-carboxamide]	88.5%
O=C(NCc1ccco1)c1nn(-c2ccc(F)cc2F)c2c1C1CCC2C1 (stereo not drawn) [Example 330, N(3)-(2-furylmethyl)-1-(2,4-difluorophenyl)-4,5,6,7-tetrahydro-1H-4,7-methano-indazole-3-carboxamide]	64.9%
CC(NC(=O)c1nn(-c2ccc(Cl)cc2)c2c1C1CC3CC(C1)CC2C3)c1ccccc1Cl (stereo not drawn) [Example 138, N7-[1-(2-Chlorophenyl)ethyl]-5-(4-chlorophenyl)-5,6-diazatetracyclo[7.3.1.1^3,11.0^4,8]tetradeca-4(8),6-diene-7-carboxamide]	68%
O=C(NCc1ccccc1Cl)c1nn(-c2ccc(Cl)cn2)c2c1C1CC3CC(C1)CC2C3 [Example 185, N7-(2-Chlorobenzyl)-5-(5-chloro-2-pyridyl)-5,6-diazatetracyclo[7.3.1.1^3,11.0^4,8]tetradeca-4(8),6-diene-7-carboxamide]	60.7%
CC12CCC(C1)C(C)(C)C2NC(=O)c1nn(-c2ccc(Cl)cc2Cl)c2c1C1CCC2c2ccccc21 (stereo not drawn) [Example 507, N12-(1,3,3-Trimethylbicyclo[2.2.1]hept-2-yl)-10-(2,4-dichlorophenyl)-10,11-diazatetracyclo[6.5.2.0^2,7.0^9,13]pentadeca-2(7),3,5,9(13),11-pentaene-12-carboxamide]	91.7%
Cc1ccc(CN2NC3=C(C4CCC3C4)C2C(=O)NC(C)(C)C)cc1 (stereo not drawn) [Example 336b, N(3)-(tert-butyl)-2-(4-methylbenzyl)-4,5,6,7-tetrahydro-1H-4,7-methano-indazole-3-carboxamide]	26.5%
CC(C)(C)NC(=O)c1nn(-c2ccc(Cl)cc2)c2c1C1CCC2C1 (stereo not drawn) [Example 321, N(3)-(tert-Butyl)-1-(4-chlorophenyl)-4,5,6,7-tetrahydro-1H-4,7-methano-indazole-3-carboxamide]	92.9%
CC(C)(NC(=O)c1nn(-c2ccc(Cl)cc2Cl)c2c1C1CCC2c2ccccc21)c1ccccc1 (stereo not drawn) [Example 508, N12-(1-Methyl-1-phenylethyl)-10-(2,4-dichlorophenyl)-10,11-diazatetracyclo[6.5.2.0^2,7.0^9,13]pentadeca-2,4,6,9(13),11-pentaene-12-carboxamide]	67.7%
O=C(Nc1ccc(O)cc1)c1nn(-c2ccc(F)cc2F)c2c1C1CCC2C1 (stereo not drawn) [Example 328, N(3)-(4-Hydroxyphenyl)-1-(2,4-difluorophenyl)-4,5,6,7-tetrahydro-1H-4,7-methano-indazole-3-carboxamide]	64.4%
CC(C)(C)NC(=O)c1nn(-c2ccc(Cl)cc2Cl)c2c1C1CCC2C1 (stereo not drawn) [Example 327, N(3)-(tert-Butyl)-1-(2,4-dichlorophenyl)-4,5,6,7-tetrahydro-1H-4,7-methano-indazole-3-carboxamide]	100%
O=C(N[C@H](CO)c1ccc(F)cc1)c1nn(-c2ccc(F)cc2F)c2c1C1CCC2C1 (stereo partly drawn) [Example 332, N(3)-[(1S)-2-Hydroxy-1-(4-fluorophenyl)ethyl]-1-(2,4-difluorophenyl)-4,5,6,7-tetrahydro-1H-4,7-methano-indazole-3-carboxamide]	70.1%
CC(C)(C)NC(=O)c1n[nH]c2c1C1(c3ccc(Cl)c(Cl)c3)CCC2C1 (stereo not drawn) [Example 325, N(3)-(tert-Butyl)-4-(3,4-dichlorophenyl)-4,5,6,7-tetrahydro-1H-4,7-methano-indazole-3-carboxamide]	99.6%
CC(NC(=O)c1nn(-c2ccc(F)cc2F)c2c1C1CC3CC(C1)CC2C3)c1ccccc1Cl (stereo not drawn) [Example 151, N(7)-[1-(2-Chlorophenyl)ethyl]-5-(2,4-difluorophenyl)-5,6-diazatetracyclo[7.3.1.1^3,11.0^4,8]tetradeca-4(8),6-diene-7-carboxamide]	69.2%
CN1CCN(NC(=O)c2nn(-c3ccc(F)cc3F)c3c2C2CCC3C2)CC1 (stereo not drawn) [Example 318, N(3)-(4-methylpiperazino)-1-(2,4-difluorophenyl)-4,5,6,7-tetrahydro-1H-4,7-methano-indazole-3-carboxamide]	31%
CC(C)(C)NC(=O)C1C2=C(NN1Cc1ccc(F)cc1)C1CCC2C1 (stereo not drawn) [Example 335b, N(3)-(tert-butyl)-2-(4-fluorobenzyl)-4,5,6,7-tetrahydro-1H-4,7-methano-indazole-3-carboxamide]	8.7%
O=C(NCc1ccccc1Cl)c1nn(-c2ccc(F)cc2F)c2c1C1CCC2C1 (stereo not drawn) [Example 297, N5-(2-Chlorobenzyl)-3-(2,4-difluorophenyl)-3,4-diazatricyclo[5.2.1.0^2,6]deca-2(6),4-diene-5-carboxamide]	70.3%

Same assay, conditions: hCB2-CHO membranes, [3H]-CP-55,940 displacement

Structure (SMILES)	% Displacement Protocol IV
CC(C)(C)NC(=O)c1nn(-c2ccc(F)cc2F)c2c1[C@H]1CC[C@]2(C)C1(C)C [Example 411, (4S,7R)—N(3)-tert-Butyl-1-(2,4-difluorophenyl)-7,8,8-trimethyl-4,5,6,7-tetrahydro-1H-methano-indazole-3-carboxamide]	49.68%
CC12CCC(c3c(C(=O)N[C@@H](CO)c4ccccc4)nn(-c4ccc(F)cc4F)c31)C2(C)C (stereo partly drawn) [Example 410]	15.5%
COC(=O)[C@H](CC(C)C)NC(=O)c1nn(-c2ccc(F)cc2F)c2c1C1CCC2C1 (stereo partly drawn) [Example 333, Methyl-(2S)-2-[5-(2,4-difluorophenyl)-4,5-diazatricyclo[5.2.1.0.^2,6]deca-2(6),3-dien-3-ylcarboxamido]-4-methylpentanoate]	100.00%
CC(C)(C)NC(=O)c1nn(-c2ccc(F)cc2F)c2c1C1CCC2c2ccccc21 (stereo not drawn) [Example 702, N(12)-tert-Butyl-10-(2,4-difluorophenyl)-10,11-diazatetracyclo[6.5.2.0^2,7.0^9,13]tetradeca-2,4,6,9(13),11-pentaene-12-carboxamide]	33.00%
O=C(NCc1cccs1)c1nn(-c2ccc(F)cc2F)c2c1C1CCC2C1 (stereo not drawn) [Example 331, N(3)-(2-thiophenemethyl)-1-(2,4-difluorophenyl)-4,5,6,7-tetrahydro-1H-4,7-methano-indazole-3-carboxamide]	75.26%
